Assay results published in ChEMBL document CHEMBL4266048, “Halogenated Meroditerpenoids from a South Pacific Collection of the Red Alga Callophycus serratus” (J Nat Prod, 2018).
Calls of active or inactive are those of the source. The rule behind the calls is not given here.

Test system: HL-60
Experiment: Cytotoxicity against human HL60 cells after 48 hrs by MTT assay
Type: functional, cell-based
Conditions: for IC50: HL-60, 48 h

Structure (SMILES) | IC50 [µM] | Activity
CC1=C2Cc3cc(ccc3O)C(=O)O[C@H](C(C)(C)Br)CC[C@](C)(O)[C@H](Br)CC[C@]2(C)[C@@H](Br)CC1 | 6.2 | –
CC1=C2Cc3cc(ccc3O)C(=O)OC(C)(C)[C@H](Br)CC[C@]3(C)O[C@H]3C[C@]2(C)[C@@H](Br)CC1 [BROMOPHYCOLIDE T] | 6 | –
C=C1CC=CC(C)(C)[C@H]1CC[C@@]1(C)[C@H](Cc2cc(Br)ccc2O)/C(=C/I)CC[C@@H]1Br | – | inactive
C=C1CC[C@@H](Br)C(C)(C)[C@H]1CC[C@@]1(C)[C@H](Cc2cc(Br)ccc2O)/C(=C/I)CC[C@@H]1Br | 5.1 | –
CC[C@H](/C=C(/C)[C@@H]1C[C@@H](OC)C[C@H](O)C(C)(C)[C@@]2(O)O[C@@H](C[C@@H](OC)[C@H](O)C(=O)O1)C[C@@H](OC)[C@H]2O)CO | 10 | –
